Laboratory results as given in the supplement of paper PMC11451515.

Tests used:
Settings in all cases: 48 h
[1] = system: SEM cells; assay: AUC of viability dose-response curve (% viability x log10 dose units); higher = less sensitive
Method in brief: (§1)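 Viability of medium-adapted leukemia cells was measured by CellTiter-Glo One luminescence after 48 h at 37°C with library compounds in DMSO. Doses were 11 threefold steps from 47 μM to 0.79 nM, in 1536-well plates at 500 or 1000 cells/well. Signals were normalised per plate to DMSO and cell-free wells and fitted with a four-parameter log-logistic model on log10 dose. Area under the curve was integrated by trapezoidal rule, with curves exceeding full viability scaled and failed quality-control curves removed.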

[2] = system: P12-Ichikawa; assay: as above
Method in brief: as §1

[3] = system: NOMO1; assay: as above
Method in brief: as §1

[4] = system: SEM cells; assay: cell viability relative to DMSO control; higher = less cytotoxic
Method in brief: (§2)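 Viability values are per-plate percentages of DMSO wells, with background from cell-free wells. Library compounds in DMSO were pin-dosed, in an 11-point threefold series from 47 μM to 0.79 nM, onto NOMO1 or SEM (500 cells/well) or P12-Ichikawa (1000 cells/well) leukemia cells in 1536-well plates (5 μl). Those cells had been adapted for at least four passages in each medium, and CellTiter-Glo One luminescence was read after 48 h at 37°C.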

[5] = system: P12-Ichikawa; assay: as above
Method in brief: as §2

[6] = system: NOMO1; assay: as above
Method in brief: as §2

CC(C)(C)c1cc(C(=O)O)c(NC(=O)Nc2ccc3[nH]ncc3c2)s1
AUC of viability dose-response curve
Settings | [1] | [2] | [3]
HPLM + 10% dialyzed FBS | 442 | 433 | 427
RPMI 5 mM glucose + 10% FBS | 447 | 426 | 418
RPMI 5 mM glucose + 10% dialyzed FBS | 440 | 438 | 422

cell viability [%]
Settings | [4] | [5] | [6]
HPLM + 10% dialyzed FBS, 0.000781 µM | 95.4 | 93.9 | 98.5
HPLM + 10% dialyzed FBS, 0.00234 µM | 97.5 | 102 | 106
HPLM + 10% dialyzed FBS, 0.00702 µM | 89.6 | 88.8 | 101
HPLM + 10% dialyzed FBS, 0.0211 µM | 101 | 97.4 | 90.7
HPLM + 10% dialyzed FBS, 0.0632 µM | 100 | 91.7 | 91.1
HPLM + 10% dialyzed FBS, 0.19 µM | 70.7 | 91.5 | 86.6
HPLM + 10% dialyzed FBS, 0.569 µM | 100 | 85.9 | 90.5
HPLM + 10% dialyzed FBS, 1.71 µM | 98.6 | 89.6 | 93.9
HPLM + 10% dialyzed FBS, 5.12 µM | 85.9 | 89.9 | 98.8
HPLM + 10% dialyzed FBS, 15.4 µM | 93.1 | 85.5 | 77.2
HPLM + 10% dialyzed FBS, 46.1 µM | 82.2 | 80.6 | 74.3
RPMI 5 mM glucose + 10% FBS, 0.000781 µM | 112 | 92.9 | 85.9
RPMI 5 mM glucose + 10% FBS, 0.00234 µM | 93.2 | 90.5 | 93.1
RPMI 5 mM glucose + 10% FBS, 0.00702 µM | 94.2 | 92.4 | 86.6
RPMI 5 mM glucose + 10% FBS, 0.0211 µM | 107 | 97.8 | 90.2
RPMI 5 mM glucose + 10% FBS, 0.0632 µM | 101 | 91.4 | 89.9
RPMI 5 mM glucose + 10% FBS, 0.19 µM | 90.8 | 98.4 | 92.3
RPMI 5 mM glucose + 10% FBS, 0.569 µM | 111 | 87.9 | 91.5
RPMI 5 mM glucose + 10% FBS, 1.71 µM | 104 | 79.6 | 83.9
RPMI 5 mM glucose + 10% FBS, 5.12 µM | 101 | 88.2 | 91.2
RPMI 5 mM glucose + 10% FBS, 15.4 µM | 93.1 | 84.7 | 77.3
RPMI 5 mM glucose + 10% FBS, 46.1 µM | 77.7 | 73.1 | 78
RPMI 5 mM glucose + 10% dialyzed FBS, 0.000781 µM | 95.2 | 93.5 | 87.9
RPMI 5 mM glucose + 10% dialyzed FBS, 0.00234 µM | 93.1 | 96.7 | 92.5
RPMI 5 mM glucose + 10% dialyzed FBS, 0.00702 µM | 83.3 | 93 | 84
RPMI 5 mM glucose + 10% dialyzed FBS, 0.0211 µM | 97.5 | 97.8 | 89.5
RPMI 5 mM glucose + 10% dialyzed FBS, 0.0632 µM | 99.6 | 97.2 | 90.9
RPMI 5 mM glucose + 10% dialyzed FBS, 0.19 µM | 88.9 | 88.8 | 83.1
RPMI 5 mM glucose + 10% dialyzed FBS, 0.569 µM | 102 | 90 | 83
RPMI 5 mM glucose + 10% dialyzed FBS, 1.71 µM | 91 | 86.2 | 94.9
RPMI 5 mM glucose + 10% dialyzed FBS, 5.12 µM | 87.5 | 87.8 | 102
RPMI 5 mM glucose + 10% dialyzed FBS, 15.4 µM | 93.7 | 87.3 | 82.8
RPMI 5 mM glucose + 10% dialyzed FBS, 46.1 µM | 73.2 | 91 | 81.6

O=C(NNC(=O)c1ccc(CN[S+](=O)([O-])c2ccc(F)c(Cl)c2)cc1)c1ccccc1
AUC of viability dose-response curve
Settings | [1] | [2] | [3]
HPLM + 10% dialyzed FBS | 463 | 460 | 468
RPMI 5 mM glucose + 10% FBS | 449 | 466 | 437
RPMI 5 mM glucose + 10% dialyzed FBS | 423 | 470 | 438

cell viability [%]
Settings | [4] | [5] | [6]
HPLM + 10% dialyzed FBS, 0.000781 µM | 84.6 | 97.4 | 105
HPLM + 10% dialyzed FBS, 0.00234 µM | 97.1 | 106 | 105
HPLM + 10% dialyzed FBS, 0.00702 µM | 98.2 | 104 | 116
HPLM + 10% dialyzed FBS, 0.0211 µM | 89.9 | 99 | 121
HPLM + 10% dialyzed FBS, 0.0632 µM | 107 | 109 | 112
HPLM + 10% dialyzed FBS, 0.19 µM | 109 | 107 | 103
HPLM + 10% dialyzed FBS, 0.569 µM | 109 | 107 | 104
HPLM + 10% dialyzed FBS, 1.71 µM | 102 | 109 | 117
HPLM + 10% dialyzed FBS, 5.12 µM | 112 | 113 | 113
HPLM + 10% dialyzed FBS, 15.4 µM | 106 | 105 | 82.7
HPLM + 10% dialyzed FBS, 46.1 µM | 87 | 113 | 110
RPMI 5 mM glucose + 10% FBS, 0.000781 µM | 92.9 | 99.8 | 84.1
RPMI 5 mM glucose + 10% FBS, 0.00234 µM | 85.2 | 101 | 85.2
RPMI 5 mM glucose + 10% FBS, 0.00702 µM | 92.5 | 98.7 | 85.2
RPMI 5 mM glucose + 10% FBS, 0.0211 µM | 75 | 96.5 | 89.3
RPMI 5 mM glucose + 10% FBS, 0.0632 µM | 91.5 | 112 | 92.9
RPMI 5 mM glucose + 10% FBS, 0.19 µM | 98.3 | 100 | 99.5
RPMI 5 mM glucose + 10% FBS, 0.569 µM | 102 | 106 | 93.3
RPMI 5 mM glucose + 10% FBS, 1.71 µM | 105 | 98.6 | 91.3
RPMI 5 mM glucose + 10% FBS, 5.12 µM | 88.2 | 91.6 | 96.7
RPMI 5 mM glucose + 10% FBS, 15.4 µM | 104 | 114 | 94.5
RPMI 5 mM glucose + 10% FBS, 46.1 µM | 106 | 105 | 92.6
RPMI 5 mM glucose + 10% dialyzed FBS, 0.000781 µM | 79.6 | 87 | 92.1
RPMI 5 mM glucose + 10% dialyzed FBS, 0.00234 µM | 76.6 | 98.3 | 98.5
RPMI 5 mM glucose + 10% dialyzed FBS, 0.00702 µM | 89.6 | 98.3 | 107
RPMI 5 mM glucose + 10% dialyzed FBS, 0.0211 µM | 97.4 | 102 | 94.2
RPMI 5 mM glucose + 10% dialyzed FBS, 0.0632 µM | 96 | 103 | 111
RPMI 5 mM glucose + 10% dialyzed FBS, 0.19 µM | 91.1 | 98.1 | 105
RPMI 5 mM glucose + 10% dialyzed FBS, 0.569 µM | 93.1 | 102 | 103
RPMI 5 mM glucose + 10% dialyzed FBS, 1.71 µM | 96.9 | 103 | 102
RPMI 5 mM glucose + 10% dialyzed FBS, 5.12 µM | 87 | 103 | 115
RPMI 5 mM glucose + 10% dialyzed FBS, 15.4 µM | 103 | 107 | 112
RPMI 5 mM glucose + 10% dialyzed FBS, 46.1 µM | 64.5 | 101 | 115
